Calls of active or inactive are those of the source. No cut-off for these calls is given here.
What was measured:
[1] = tested on: RAW264.7; test: Cytotoxicity against mouse RAW264.7 assessed as reduction in cell viability at 20 uM measured after 24 hrs by MTT assay relative to control; assay type: cell-based; conditions: raw264.7, 24 h
[2] = tested on: RAW264.7; test: Antiinflammatory activity in mouse RAW264.7 cells assessed as inhibition of LPS-induced NO production at 20 uM after 24 hrs by Griess method; assay type: functional, cell-based
[3] = tested on: RAW264.7; test: Inhibition of LPS-induced NO production in mouse RAW264.7 cells assessed as reduction in COX-2 protein expression measured after 24 hrs by Western blot analysis; assay type: functional, cell-based; conditions: dose microM <=30, time 24.0 hrs
[4] = biological target: Mitogen-activated protein kinase 1 and 3 (ERK2 and ERK1) (Mus musculus) (UniProt P63085+Q63844); test: Inhibition of LPS-induced ERK1/2 phosphorylation in mouse RAW264.7 cell upto 30 uM measured after 2 hr by Western blot analysis; conditions: dose microM <=30, time 2.0 hrs
Mitogen-activated protein kinase 1 and 3 (ERK2 and ERK1) (Mus musculus), sequence (P63085 whole entry, looked up): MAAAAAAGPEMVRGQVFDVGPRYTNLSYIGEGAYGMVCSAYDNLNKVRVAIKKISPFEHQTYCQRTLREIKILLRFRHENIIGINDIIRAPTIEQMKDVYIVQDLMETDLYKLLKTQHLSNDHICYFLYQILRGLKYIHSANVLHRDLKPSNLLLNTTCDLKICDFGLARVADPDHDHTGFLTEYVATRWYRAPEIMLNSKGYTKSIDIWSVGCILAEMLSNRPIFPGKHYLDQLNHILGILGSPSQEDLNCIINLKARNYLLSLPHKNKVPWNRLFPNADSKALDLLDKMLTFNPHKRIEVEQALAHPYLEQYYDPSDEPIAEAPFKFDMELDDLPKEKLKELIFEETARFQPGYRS
Mitogen-activated protein kinase 1 and 3 (ERK2 and ERK1) (Mus musculus), sequence (Q63844 whole entry, looked up): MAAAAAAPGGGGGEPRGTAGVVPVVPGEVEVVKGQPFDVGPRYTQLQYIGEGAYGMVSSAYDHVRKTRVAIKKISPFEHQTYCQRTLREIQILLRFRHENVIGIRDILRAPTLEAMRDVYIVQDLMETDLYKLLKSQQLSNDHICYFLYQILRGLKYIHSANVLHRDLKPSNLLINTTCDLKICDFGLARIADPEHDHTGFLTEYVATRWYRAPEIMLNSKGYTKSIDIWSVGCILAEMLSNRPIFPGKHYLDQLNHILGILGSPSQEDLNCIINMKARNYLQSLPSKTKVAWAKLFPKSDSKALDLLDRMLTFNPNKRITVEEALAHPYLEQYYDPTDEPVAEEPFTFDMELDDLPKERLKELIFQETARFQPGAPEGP

[5] = tested on: RAW264.7; test: Inhibition of LPS-induced IL-6 protein expression in mouse RAW264.7 cells upto 30 uM measured after 6 hrs by ELISA; assay type: functional, cell-based; conditions: dose microM <=30, time 6.0 hrs
[6] = tested on: RAW264.7; test: Inhibition of LPS-induced TNFalpha protein expression in mouse RAW264.7 cells upto 30 uM measured after 6 hrs by ELISA; assay type: functional, cell-based; conditions: dose microM <=30, time 6.0 hrs
[7] = biological target: Transcription factor p65 (Mus musculus) (UniProt Q04207); test: Inhibition of LPS-induced NFkappaB p65 nucleus translocation in mouse RAW264.7 cells at 30 uM measured after 2 hr by immunofluorescence microscopic analysis; assay type: cell-based
Transcription factor p65 (Mus musculus), sequence (Q04207 whole entry): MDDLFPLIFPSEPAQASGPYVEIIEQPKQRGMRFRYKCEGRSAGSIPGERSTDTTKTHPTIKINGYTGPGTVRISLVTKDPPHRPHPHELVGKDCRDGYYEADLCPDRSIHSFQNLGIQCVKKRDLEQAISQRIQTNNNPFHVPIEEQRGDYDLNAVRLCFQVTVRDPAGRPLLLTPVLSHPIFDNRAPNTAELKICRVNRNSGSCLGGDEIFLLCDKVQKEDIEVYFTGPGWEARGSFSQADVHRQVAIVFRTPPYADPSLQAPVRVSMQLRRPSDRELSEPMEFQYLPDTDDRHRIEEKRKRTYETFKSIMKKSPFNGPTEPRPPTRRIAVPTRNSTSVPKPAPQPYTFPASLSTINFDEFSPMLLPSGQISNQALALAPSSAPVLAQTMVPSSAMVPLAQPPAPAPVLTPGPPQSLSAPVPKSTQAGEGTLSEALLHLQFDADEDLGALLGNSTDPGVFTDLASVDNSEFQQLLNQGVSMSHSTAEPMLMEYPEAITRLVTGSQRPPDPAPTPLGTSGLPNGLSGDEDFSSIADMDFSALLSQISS

[8] = tested on: RAW264.7; test: Inhibition of LPS-stimulated NFkappaB activation in mouse RAW264.7 cells assessed as reduction in LPS-induced IkappaB phosphorylation at 7.5 to 30 uM after 2 hrs by Western blot analysis; assay type: cell-based; conditions: dose 7.5-30 µM
[9] = tested on: RAW264.7; test: Inhibition of LPS-induced NO production in mouse RAW264.7 cells assessed as reduction in iNOS protein expression measured after 24 hrs by Western blot analysis; assay type: functional, cell-based; conditions: dose microM <=30, time 24.0 hrs
[10] = tested on: RAW264.7; test: Inhibition of LPS-induced p38 phosphorylation in mouse RAW264.7 cell upto 30 uM measured after 2 hr by Western blot analysis; conditions: dose microM <=30, time 2.0 hrs
[11] = tested on: RAW264.7; test: Inhibition of LPS-induced JNK phosphorylation in mouse RAW264.7 cell upto 30 uM measured after 2 hr by Western blot analysis; conditions: dose microM <=30, time 2.0 hrs

Q: Which results are given for `CC(C)(O)[C@@H]1CC[C@@](C)([C@H]2CC[C@]3(C)[C@@H]2[C@H](O)C[C@@H]2[C@@]4(C)CC[C@H](O)C(C)(C)[C@@H]4CC[C@]23C)O1`?
A: Activity [1]: Non-Toxic; Activity [2]: Active

Q: For `CC(C)(O)[C@@H]1CC[C@@](C)([C@H]2CC[C@]3(C)[C@@H]2[C@H](O)C[C@@H]2[C@@]4(C)CC[C@H](OC(=O)[C@@H](N)CCC(=O)O)C(C)(C)[C@@H]4CC[C@]23C)O1`, which Activity [1] is on record?
A: Non-Toxic

Q: And the Activity [2]?
A: Active

Q: Which Activity [1] does the source give for `CC(C)(C)OC(=O)NCC(=O)O[C@H]1CC[C@]2(C)[C@H]3C[C@@H](O)[C@@H]4[C@@H]([C@]5(C)CC[C@@H](C(C)(C)O)O5)CC[C@@]4(C)[C@]3(C)CC[C@H]2C1(C)C` here?
A: Non-Toxic

Q: And the Activity [2]?
A: Active

Q: What does the source list for `CC(C)(C)OC(=O)NCC(=O)NCC(=O)O[C@H]1CC[C@]2(C)[C@H]3C[C@@H](O)[C@@H]4[C@@H]([C@]5(C)CC[C@H](C(C)(C)O)O5)CC[C@@]4(C)[C@]3(C)CC[C@H]2C1(C)C`?
A: inhibition [3]: Dose-dependent effect; inhibition [4]: Dose-dependent effect; inhibition [5]: Dose-dependent effect; inhibition [6]: Dose-dependent effect; Activity [1]: Non-Toxic; inhibition [7]: Dose-dependent effect; inhibition [8]: Dose-dependent effect; inhibition [9]: Dose-dependent effect; inhibition [10]: Dose-dependent effect; inhibition [11]: inactive; Activity [2]: Active

Q: With `CC(C)(O)[C@@H]1CC[C@@](C)([C@H]2CC[C@]3(C)[C@@H]2[C@H](O)C[C@@H]2[C@@]4(C)CC[C@H](OC(=O)CN)C(C)(C)[C@@H]4CC[C@]23C)O1` as the molecule, how does the Activity [1] read?
A: Non-Toxic

Q: What about the Activity [2] of the same molecule?
A: Active

Q: How did the Activity [1] turn out when `CC(C)(O)[C@@H]1CC[C@@](C)([C@H]2CC[C@]3(C)[C@@H]2[C@H](O)C[C@@H]2[C@@]4(C)CC[C@H](OC(=O)CNC(=O)CN)C(C)(C)[C@@H]4CC[C@]23C)O1` was run?
A: Non-Toxic

Q: What about the Activity [2] of the same molecule?
A: Active

Q: `CC(C)(O)[C@@H]1CC[C@@](C)([C@H]2CC[C@]3(C)[C@@H]2[C@H](O)C[C@@H]2[C@@]4(C)CC[C@H](OC(=O)CNC(=O)CNC(=O)CN)C(C)(C)[C@@H]4CC[C@]23C)O1` was tested. Which Activity [1] did it give?
A: Non-Toxic

Q: And the Activity [2]?
A: Active

Q: For `CC(C)(C)OC(=O)N[C@@H](Cc1ccccc1)C(=O)O[C@H]1CC[C@]2(C)[C@H]3C[C@@H](O)[C@@H]4[C@@H]([C@]5(C)CC[C@H](C(C)(C)O)O5)CC[C@@]4(C)[C@]3(C)CC[C@H]2C1(C)C`, which Activity [1] is on record?
A: Non-Toxic

Q: For `CC(C)(C)OC(=O)NCC(=O)O[C@H]1CC[C@]2(C)[C@H]3C[C@@H](O)[C@@H]4[C@@H]([C@]5(C)CC[C@H](C(C)(C)O)O5)CC[C@@]4(C)[C@]3(C)CC[C@H]2C1(C)C`, which Activity [1] is on record?
A: Non-Toxic

Q: What about the Activity [2] of the same molecule?
A: Active

Q: With `CC(C)(O)[C@@H]1CC[C@@](C)([C@H]2CC[C@]3(C)[C@@H]2[C@H](O)C[C@@H]2[C@@]4(C)CC[C@H](OC(=O)[C@@H](N)CCCCN)C(C)(C)[C@@H]4CC[C@]23C)O1` as the molecule, how does the Activity [1] read?
A: Non-Toxic

Q: How did the Activity [1] turn out when `CC(C)(O)[C@H]1CC[C@@](C)([C@H]2CC[C@]3(C)[C@@H]2[C@H](O)C[C@@H]2[C@@]4(C)CC[C@H](OC(=O)CNC(=O)CN)C(C)(C)[C@@H]4CC[C@]23C)O1` was run?
A: Non-Toxic

Q: And the Activity [2]?
A: Active

Q: For `C[C@]12CCC(=O)C=C1CC[C@@H]1[C@@H]2[C@@H](O)C[C@@]2(C)[C@H]1CC[C@]2(O)C(=O)COC(=O)CCC(=O)[O-].[Na+]` [HYDROCORTISONE SODIUM SUCCINATE], which Activity [1] is on record?
A: Non-Toxic

Q: With `CC(C)(C)OC(=O)NCCCC[C@H](NC(=O)OC(C)(C)C)C(=O)O[C@H]1CC[C@]2(C)[C@H]3C[C@@H](O)[C@@H]4[C@@H]([C@]5(C)CC[C@H](C(C)(C)O)O5)CC[C@@]4(C)[C@]3(C)CC[C@H]2C1(C)C` as the molecule, how does the Activity [1] read?
A: Non-Toxic

Q: And the Activity [2]?
A: Active

Q: `CC(C)(C)OC(=O)NCC(=O)NCC(=O)O[C@H]1CC[C@]2(C)[C@H]3C[C@@H](O)[C@@H]4[C@@H]([C@]5(C)CC[C@@H](C(C)(C)O)O5)CC[C@@]4(C)[C@]3(C)CC[C@H]2C1(C)C` was tested. Which Activity [1] did it give?
A: Non-Toxic

Q: And the Activity [2]?
A: Active

Q: For `CC(C)(O)[C@H]1CC[C@@](C)([C@H]2CC[C@]3(C)[C@@H]2[C@H](O)C[C@@H]2[C@@]4(C)CC[C@H](O)C(C)(C)[C@@H]4CC[C@]23C)O1`, which Activity [1] is on record?
A: Non-Toxic

Q: And the Activity [2]?
A: Active

Q: With `CC(C)(O)[C@H]1CC[C@@](C)([C@H]2CC[C@]3(C)[C@@H]2[C@H](O)C[C@@H]2[C@@]4(C)CC[C@H](OC(=O)[C@@H](N)CCC(=O)O)C(C)(C)[C@@H]4CC[C@]23C)O1` as the molecule, how does the Activity [1] read?
A: Non-Toxic

Q: What about the Activity [2] of the same molecule?
A: Active

Q: Which Activity [1] does the source give for `CC(C)(C)OC(=O)CC[C@H](NC(=O)OC(C)(C)C)C(=O)O[C@H]1CC[C@]2(C)[C@H]3C[C@@H](O)[C@@H]4[C@@H]([C@]5(C)CC[C@@H](C(C)(C)O)O5)CC[C@@]4(C)[C@]3(C)CC[C@H]2C1(C)C` here?
A: Non-Toxic

Q: With `CC(C)(C)OC(=O)NCC(=O)NCC(=O)NCC(=O)O[C@H]1CC[C@]2(C)[C@H]3C[C@@H](O)[C@@H]4[C@@H]([C@]5(C)CC[C@H](C(C)(C)O)O5)CC[C@@]4(C)[C@]3(C)CC[C@H]2C1(C)C` as the molecule, how does the Activity [1] read?
A: Non-Toxic

Q: What about the Activity [2] of the same molecule?
A: inactive

Q: For `CC(C)(O)[C@H]1CC[C@@](C)([C@H]2CC[C@]3(C)[C@@H]2[C@H](O)C[C@@H]2[C@@]4(C)CC[C@H](OC(=O)CN)C(C)(C)[C@@H]4CC[C@]23C)O1`, which Activity [1] is on record?
A: Non-Toxic

Q: What about the Activity [2] of the same molecule?
A: Active

Q: Which Activity [1] does the source give for `CC(C)(O)[C@@H]1CC[C@@](C)([C@H]2CC[C@]3(C)[C@@H]2[C@H](O)C[C@@H]2[C@@]4(C)CC[C@H](OC(=O)[C@@H](N)Cc5ccccc5)C(C)(C)[C@@H]4CC[C@]23C)O1` here?
A: Non-Toxic

Q: Which Activity [1] does the source give for `CC(C)(C)OC(=O)NCC(=O)NCC(=O)NCC(=O)O[C@H]1CC[C@]2(C)[C@H]3C[C@@H](O)[C@@H]4[C@@H]([C@]5(C)CC[C@@H](C(C)(C)O)O5)CC[C@@]4(C)[C@]3(C)CC[C@H]2C1(C)C` here?
A: Non-Toxic

Q: Which Activity [1] does the source give for `CC(C)(C)OC(=O)CC[C@H](NC(=O)OC(C)(C)C)C(=O)O[C@H]1CC[C@]2(C)[C@H]3C[C@@H](O)[C@@H]4[C@@H]([C@]5(C)CC[C@H](C(C)(C)O)O5)CC[C@@]4(C)[C@]3(C)CC[C@H]2C1(C)C` here?
A: Non-Toxic

Q: Which Activity [1] does the source give for `CC(C)(C)OC(=O)NCCCC[C@H](NC(=O)OC(C)(C)C)C(=O)O[C@H]1CC[C@]2(C)[C@H]3C[C@@H](O)[C@@H]4[C@@H]([C@]5(C)CC[C@@H](C(C)(C)O)O5)CC[C@@]4(C)[C@]3(C)CC[C@H]2C1(C)C` here?
A: Non-Toxic

Q: What about the Activity [2] of the same molecule?
A: Active

Q: With `CC(C)(O)[C@H]1CC[C@@](C)([C@H]2CC[C@]3(C)[C@@H]2[C@H](O)C[C@@H]2[C@@]4(C)CC[C@H](OC(=O)CNC(=O)CNC(=O)CN)C(C)(C)[C@@H]4CC[C@]23C)O1` as the molecule, how does the Activity [1] read?
A: Non-Toxic

Q: What about the Activity [2] of the same molecule?
A: Active

Q: Which Activity [1] does the source give for `CC(C)(O)[C@H]1CC[C@@](C)([C@H]2CC[C@]3(C)[C@@H]2[C@H](O)C[C@@H]2[C@@]4(C)CC[C@H](OC(=O)[C@@H](N)CCCCN)C(C)(C)[C@@H]4CC[C@]23C)O1` here?
A: Non-Toxic

Q: How did the Activity [1] turn out when `CC(C)(O)[C@H]1CC[C@@](C)([C@H]2CC[C@]3(C)[C@@H]2[C@H](O)C[C@@H]2[C@@]4(C)CC[C@H](OC(=O)[C@@H](N)Cc5ccccc5)C(C)(C)[C@@H]4CC[C@]23C)O1` was run?
A: Non-Toxic

Q: Which Activity [1] does the source give for `CC(C)(C)OC(=O)N[C@@H](Cc1ccccc1)C(=O)O[C@H]1CC[C@]2(C)[C@H]3C[C@@H](O)[C@@H]4[C@@H]([C@]5(C)CC[C@@H](C(C)(C)O)O5)CC[C@@]4(C)[C@]3(C)CC[C@H]2C1(C)C` here?
A: Non-Toxic
